Data taken from paper PMC5457661, “Dysregulation of lysophosphatidic acids in multiple sclerosis and autoimmune encephalomyelitis” (Acta Neuropathologica Communications, 2017).
Entries after “also recorded” stand apart in the source; their conditions may differ. Like-named read-outs stand apart in the source and are kept apart here. Blank lines part the entries; values can stand above or below the molecule they belong to.

Tests used:
LPAR1, 2, 3 or 4 [1] = target: T1, LPAR1, 2, 3 or 4 (Homo sapiens, UniProt Q9HBW0); assay: LPA receptor activation panel in COS cells with heterologous expression of LPAR1, 2, 3 or 4 plus Gα15, mock controls; assay type: cell-based; settings: COS cells with heterologous expression of LPAR1, 2, 3 or 4
T1 construct: expressed in transfected cells; host or cells: COS-1
T1 sequence (Q9HBW0 whole entry): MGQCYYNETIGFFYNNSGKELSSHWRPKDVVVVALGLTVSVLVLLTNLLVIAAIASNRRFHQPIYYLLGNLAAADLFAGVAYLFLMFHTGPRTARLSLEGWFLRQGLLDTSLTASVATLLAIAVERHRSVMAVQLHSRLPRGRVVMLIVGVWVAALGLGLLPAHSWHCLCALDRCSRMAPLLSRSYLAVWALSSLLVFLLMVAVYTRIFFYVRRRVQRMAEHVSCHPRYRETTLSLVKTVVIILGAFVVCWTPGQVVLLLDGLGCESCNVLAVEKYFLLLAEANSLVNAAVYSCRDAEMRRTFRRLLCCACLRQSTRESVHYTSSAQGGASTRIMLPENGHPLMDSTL
Description: (§1) To study the activation profile of heterologously expressed LPA receptors, COS-1 cells were seeded in 96-well plates at a density of 50.000 cells/well. Next day, they were co-transfected with plasmids containing cDNA for a calcium-sensitive bioluminescent fusion protein between aequorin and GFP [3] and plasmids containing the indicated receptor cDNA or control (empty vector, mock) together with the promiscuous Gα15 [42] at a concentration of 50 ng/well by using FuGENE 6 reagent (Promega) according to manufacturer’s instructions. Forty-eight hours later, cells were loaded with 5 μM coelenterazine h (Invitrogen) in HBSS buffer containing 1.8 mM CaCl2 and 10 mM glucose for 2 h at 37 °C. Measurements were performed by using a luminometric plate reader (Flexstation 3) for 100 s following ligand stimulation. The area under each calcium transient was calculated by using SoftMaxPro software and expressed as area under the curve (AUC). The following lipids were used for stimulation: 1-Palmitoyl-LPA (LPA16:0), 1-oleoyl-LPA (LPA18:1), 1-stearoyl-LPA (LPA18:0), 1-lineoyl-LPA (LPA18:2), 1-arachidonoyl-LPA (LPA20:4). LPA16:0 and 18:1 were from Cayman, the others from AvantiPolar Lipids.

RR-EAE SJL/J mice = assay: Relapsing-remitting EAE (PLP139-151/CFA/PTX immunization), clinical scores, body weight, spinal cord immunofluorescence; assay type: in vivo
Description: (§2) Female SJL/J mice (Envigo, Germany), aged 10–12 weeks at immunization were used for study of relapsing-remitting EAE and female TCR^1640 mice for spontaneous RR-EAE [45]. Female C57BL6/J mice and LPAR2^−/− mice and LPAR2^+/+ littermates were used for the study of primary progressive EAE. LPAR2^−/− mice have a mixed C57BL6/J x Sv129 background with about 25% Sv129. Mice were housed at 3–5 mice per cage at constant room temperature (21 ± 1 °C) under a regular 12 h light/dark schedule. Food and water were available ad libitum. Animals were treated orally via the drinking water with FTY720 (fingolimod) at 0.5 mg/kg/d starting 3 days after immunization for preventive treatment. Monoclonal anti-Itga4 antibody treatment (natalizumab) in SJL/J mice consisted in 3 intraperitoneal injections (1x200 μg, 2x 150 μg) on day 11, 14 and 19. The LPAR2 agonist GRI 977143 was administered perorally in cornflakes soaked with 10% sucrose/10% DMSO in water with 100 μg/mouse/d of the drug starting 3d after immunization. Control animals received the respective vehicle. Oral bioavailability (F) of the LPAR2 agonist and basic kinetics were assessed by LC-MS/MS analysis of plasma concentrations. Tmax and Cmax were directly taken from the plasma concentration time courses. AUCs were calculated according to the linear trapezoidal rule. The clearance was calculated as Cl = Dose*F/AUCs and the half-life, t1/2 = ln2/λ, where λ is the terminal decay constant.
C57BL6/J and LPAR2 mice were immunized according to a standard protocol using the Hooke Kit™ MOG35-55/CFA emulsion PTX (EK-2110, Hooke Labs, St Lawrence, MA), which contains 200 μg myelin oligodendrocyte glycoprotein (MOG) 35–55 emulsified in 200 μl Complete Freund’s Adjuvant (CFA). The emulsion was injected subcutaneously at two sites followed by two intraperitoneal (i.p.) injections of 200 ng pertussis toxin (PTX) in phosphate buffered saline (PBS), the first 1–2 h after MOG35-55, and the second 24 h later. SJL mice were immunized using Hooke Kit™ PLP139-151/CFA emulsion PTX (EK-2120), which contains 200 μg myelin proteolipid protein (PLP) 139–151 in 200 μl CFA (Hooke Labs, US). Injections of the emulsion and PTX were done as described for C57BL6 mice.
EAE scores were assessed daily to evaluate the severity and extent of motor function deficits. Score 0, normal motor functions; score 0.5, distal paralysis of the tail; score 1, complete tail paralysis; score 1.5, mild paresis of one or both hind legs; score 2, severe paresis of hind legs; score 2.5, complete paralysis of one hind leg; score 3, complete paralysis of both hind legs; score 3.5, complete paralysis of hind legs and paresis of one front leg. Serum and tissues were sampled after the second peak, 35–36 days after immunization.
Mice were terminally anaesthetized with isoflurane and cardially perfused with cold 0.9% NaCl, followed by 4% paraformaldehyde (PFA) in 1x PBS for fixation. […]
Tiled images of individual sections were captured with equal filter and acquisition parameters to assure comparability independent of genotype or treatment and subsequently stitched to cover the complete ventral horn of the spinal cord. Iba1+ and CD11b + microglia/macrophages in the gray matter and white matter were quantified using the particle counter plugin of FIJI ImageJ. […] Three or more non-overlapping images of 3 mice were analyzed per group.

[2] = Plasma concentration time courses and basic pharmacokinetics of the LPAR2 agonist (LC-MS/MS); assay type: in vivo, SJL/J mice
Description: as §2

LPAR2 [3] = target: T2, LPAR2 (Homo sapiens, UniProt Q9HBW0); assay: LPA receptor activation, aequorin-GFP calcium luminescence in COS-1 cells co-transfected with Gα15; assay type: cell-based
T2 construct: plasmids containing the indicated receptor cDNA or control (empty vector, mock); expressed in transfected cells; host or cells: COS-1
T2 sequence (Q9HBW0 whole entry): as above
Description: as §1

LPAR2 [4] = target: T2, LPAR2; design: method as in not given; settings: reported value; ref not given; cited from earlier work
autotaxin [5] = target: T3, autotaxin (Mus musculus, UniProt Q9R1E6); assay: LPA plasma concentration in naïve mice after autotaxin inhibitor; assay type: in vivo; settings: i.p. 30 min before plasma sampling
T3 construct: from tissue; host or cells: living naïve mice, plasma sampled
Description: Quantitative LPA analysis was performed with liquid chromatography-electrospray ionization-tandem mass spectrometry (LC-ESI-MS/MS) with a hybrid triple quadrupole-ion trap QTrap 5500 mass spectrometer (AB Sciex, Germany) as described without knowledge of clinical data or treatment groups. Briefly, 2 cycles of liquid-liquid extraction of LPAs were done with 1-buthanol after adding the internal standard LPA17:0 (50 μl sample, 20 μl internal standard in 500 μl 1-butanol). The combined organic phases were dried under a gentle stream of nitrogen at 45 °C and subsequently re-dissolved in 200 μl methanol. A C18 column (Mercury 20 x 2 mm, 3 μm, 100 Å) and precolumn were used for chromatographic separation. A linear gradient was employed at a flow rate of 400 μl/min. Mobile phase A was water with ammonium formate 50 mM and formic acid (100:0.2, v/v) and mobile phase B acetonitrile/formic acid (100:0.1, v/v). The mass spectrometer operated in the negative ion mode and used multiple reaction monitoring (MRM). The mass transitions were m/z 409 → 79 (LPA 16:0), m/z 437 → 153 (LPA 18:0), m/z 431 → 79 (LPA 18:3) and m/z 457 → 153 (LPA 20:4) all with a dwell time of 50 ms. The internal standard method was used for quantification with Analyst Software V1.5 (Applied Biosystems, Germany). The calibration curve was linear over the range of 0.1–500 ng/ml and accuracy was >95%.

LPAR1, 2, 3 or 4 [6] = assay: LPA receptor activation panel in COS cells with heterologous expression of LPAR1, 2, 3 or 4 plus Gα15, mock controls; assay type: cell-based, human; settings: for LPAR activation (agonist activity): calcium transient AUC, all heterologously expressed LPARs
Description: as §1

LPAR1 = target: T4, LPAR1 (Homo sapiens, UniProt Q92633); assay: LPA receptor activation, aequorin-GFP calcium luminescence in COS-1 cells co-transfected with Gα15; assay type: cell-based; settings: compared with other LPAs
T4 construct: plasmids containing the indicated receptor cDNA or control (empty vector, mock); expressed in transfected cells; host or cells: COS-1
T4 sequence (Q92633 whole entry): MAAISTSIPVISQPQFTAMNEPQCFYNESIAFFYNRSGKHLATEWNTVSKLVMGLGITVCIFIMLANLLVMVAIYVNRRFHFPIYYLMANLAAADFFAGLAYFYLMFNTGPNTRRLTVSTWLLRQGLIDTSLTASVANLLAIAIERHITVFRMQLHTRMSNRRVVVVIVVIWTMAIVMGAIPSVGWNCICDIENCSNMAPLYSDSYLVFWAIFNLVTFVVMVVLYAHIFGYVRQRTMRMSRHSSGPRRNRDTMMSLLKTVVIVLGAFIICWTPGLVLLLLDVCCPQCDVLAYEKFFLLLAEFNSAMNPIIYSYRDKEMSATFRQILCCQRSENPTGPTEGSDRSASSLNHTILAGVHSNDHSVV
Description: as §1

serum LPAs [7] = assay: Serum LPA concentrations (LC-MS/MS) in treated SJL/J EAE mice; assay type: in vivo; settings: 35 days after immunization, vs vehicle treated EAE mice
Description: as §2, with “Monoclonal anti-Itga4 antibody treatment (natalizumab) in SJL/J mice consisted in 3 intraperitoneal injections (1x200 μg, 2x 150 μg) on day 11, 14 and 19. The LPAR2 agonist GRI 977143 was administered perorally in cornflakes soaked with 10% sucrose/10% DMSO in water with 100 μg/mouse/d of the drug starting 3d after immunization. Control animals received the respective vehicle.” left out, “Tmax and Cmax were directly taken from the plasma concentration time courses.” left out, “constant. […]” for “constant.”
(§3) Quantitative LPA analysis was performed with liquid chromatography-electrospray ionization-tandem mass spectrometry (LC-ESI-MS/MS) with a hybrid triple quadrupole-ion trap QTrap 5500 mass spectrometer (AB Sciex, Germany) as described without knowledge of clinical data or treatment groups. […] The internal standard method was used for quantification with Analyst Software V1.5 (Applied Biosystems, Germany). […]

serum LPAs [8] = assay: Serum LPA concentrations (LC-MS/MS) in medication subgroups of MS patients; assay type: in vivo, human; settings: MS patients on prophylactic treatment vs no medication, beta interferon or other drugs
Source text: Human samples and data were available from an observational cross-sectional investigation of 102 multiple sclerosis patients (31 men, 71 women, demographic data Table 1) consecutively recruited from outpatients and inpatients of the Department of Neurology of the Goethe University Hospital Frankfurt, Germany. Data and blood collection was part of the local bio-banking project (Neurological Department of the Goethe University, Frankfurt), adhered to the Declaration of Helsinki and was approved by the Ethics Committees of the Medical Faculty of the Goethe University. Cerebrospinal fluid samples were available from a previous study including 20 MS patients and 10 control patients with other non-inflammatory neurologic diseases. For long-term time course analyses additional 15 patients were recruited and observed up to 3.5 years. […]
as §3

autotaxin [9] = system: autotaxin; design: method as in PMID 19215222; settings: cited from earlier work
autotaxin [10] = target: T3, autotaxin; assay: Autotaxin lyso-PLD activity ex vivo in primary splenocytes (C17-LPC to C17:0-LPA conversion); assay type: cell-based; settings: splenocytes from treated EAE mice
Description: The spleens were removed and collected in a sterile wire mesh with 40 μm pore size over a Petri dish half filled with RPMI 1640 media and were gently pressed through the mesh using a 5 ml syringe plunger. The mesh was rinsed over the Petri dish with additional media to remove remaining cells. Disaggregated cells were transferred to a 15 ml Falcon tube and centrifuged at 2,000 rpm for 5 min and washed 2x in RPMI. The cell pellet was resuspended in RPMI, treated with erythrocyte lysis buffer for 10 min at room temperature, followed by centrifugation and resuspension in full medium (RPMI 1640 + 10% FBS + 1% Pen/Strep). Cells were plated in 6-well plates at 3x10^6/2 ml per well. Growth was stimulated with concanavalin A at 1 μg/ml. Cells were kept in an incubator at 37 °C, 95% humidity and 5% CO2 atmosphere and assays were performed after 2d in culture.
The lyso-PLD activity of ATX was measured in primary splenocytes of naïve and EAE mice. Cells were incubated for 2 h in 1.1 ml serum free RPMI 1640 medium and then stimulated for another 2 h with PMA 50 ng/ml and ionomycin 500 ng/ml in serum free medium before the autotaxin substrate, C17-LPC was added (100 μM in 1 μl in DMSO). […] C17-LPC is converted into the unnatural C17:0-LPA, which was analysed in supernatants and crude cell extracts by LC-MS/MS as described above. […]

LPAR2 specificity (LPAR1, 2, 3 or 4 [1]): confirmed the LPAR2 specificity
AUC ([2]; calculated from i.p. data): 4.26 µg·h/mL
CL ([2]; calculated from i.p. data): 23.5 mL/h
Vd ([2]; calculated from i.p. data): 27.3 mL
Tmax ([2]; plasma, after i.p. administration, SJL/J mice): 10 min
EC50 (LPAR2 [3]; LPAR2 agonist, COS-1 cells): ~1000 nM
Molecule: O=C(O)c1ccccc1SCCCN1C(=O)c2cccc3cccc(c23)C1=O [GRI 977143]
clinical EAE scores (RR-EAE SJL/J mice; 100 μg/mouse/d p.o. starting 3 d after immunization up to 35 d, vs vehicle): significantly lower clinical EAE scores
body weight (RR-EAE SJL/J mice; 100 μg/mouse/d p.o. starting 3 d after immunization, vs vehicle): therapeutic efficacy was also evident
infiltration of the white matter of the lumbar spinal cord with myeloid cells (CD11b positive particles) (RR-EAE SJL/J mice; 100 μg/mouse/d p.o., 36 days after immunization, vs vehicle): much reduced; also recorded: significantly reduced
EC50 (LPAR2 [4]): 1000 to 3000 nM

Molecule: O=C(CCN1CCN(C(=O)OCc2cc(Cl)cc(Cl)c2)CC1)c1ccc2[nH]c(=O)oc2c1 [PF8380]
LPA plasma concentration (autotaxin [5]): mainly reduced unsaturated LPAs

Molecule: CCCCCCCCCCCCCCCCCCOC[C@@H](O)COP(=O)(O)O [octadecyl-LPA]
LPAR activation (agonist activity) (LPAR1, 2, 3 or 4 [6]): no effects

Emax (LPAR1): highest Emax values
Emax (LPAR2 [3]; compared with other LPAs): highest Emax values
Molecule: CCCCCCCC/C=C\CCCCCCCC(=O)OC[C@@H](O)COP(=O)(O)O [LPA18:1, 1-oleoyl-LPA]
specificity (response of mock transduced cells) (LPAR1, 2, 3 or 4 [6]; mock-Gα15 transduced cells as control): most specific

Molecule: CCCCCCCCc1ccc(CCC(N)(CO)CO)cc1 [fingolimod]
clinical EAE scores (RR-EAE SJL/J mice; fingolimod 0.5 mg/kg/day in drinking water from 3 d after immunization): only minor effects
LPA serum concentration (serum LPAs [7]): additional LPA lowering effect
LPA concentrations in serum (serum LPAs [8]): significantly lower
autotaxin inhibition (autotaxin [9]): slow acting autotaxin inhibitor

maximum stimulation effect of PMA/Ionomycin on ATX activity (autotaxin [10]): significantly reduced
Molecule: natalizumab: alpha-4 integrin (VLA4) targeting monoclonal antibody
clinical EAE scores (RR-EAE SJL/J mice; 3 i.p. injections at d11 (200 μg), d14, d19 (150 μg)): reduced the clinical scores
LPA serum concentration (serum LPAs [7]): significantly lower LPA levels
LPA concentrations in serum (serum LPAs [8]): significantly lower

Molecule: CCCCCCCCCCCCCCCCOC[C@@H](O)COP(=O)(O)O [hexadecyl-LPA]
LPAR activation (agonist activity) (LPAR1, 2, 3 or 4 [6]): no effects
